Laboratory results from patent US10669285B2, “Condensed [1,4] diazepine compounds as autotaxin (ATX) and lysophosphatidic acid (LPA) production inhibitors” (Hoffmann-La Roche Inc., priority 2014, dated 2020).

Biological target: ATX (human His-tagged) (Homo sapiens (Human), UniProt Q13822)
Test: Human ATX enzyme inhibition assay (fluorescence quenching, MR121 substrate)
Format: biochemical
Details: inhibitory activity against ATX; 30 nM ATX, 1 μM MR121 substrate, 30° C.
Method: Human ATX Enzyme Inhibition Assay
ATX inhibition was measured by a fluorescence quenching assay using a specifically labeled substrate analogue (MR121 substrate). To obtain this MR121 substrate, BOC and TBS protected 6-amino-hexanoic acid (R)-3-({2-[3-(2-{2-[2-(2-amino-ethoxy)-ethoxy]-ethoxy}-ethoxy)-propionylamino]-ethoxy}-hydroxy-phosphoryloxy)-2-hydroxy-propyl ester (Ferguson et al., Org Lett 2006, 8 (10), 2023) was labeled with MR121 fluorophore (CAS 185308-24-1, 1-(3-carboxypropyl)-11-ethyl-1,2,3,4,8,9,10,11-octahydro-dipyrido[3,2-b:2′,3′-i]phenoxazin-13-ium) on the free amine of the ethanolamine side and then, after deprotection, subsequently with tryptophan on the side of the aminohexanoic acid.
Assay working solutions were made as follows:
Assay buffer (50 mM Tris-HCl, 140 mM NaCl, 5 mM KCl, 1 mM CaCl2, 1 mM MgCl2, 0.01% Triton-X-100, pH 8.0;
ATX solution: ATX (human His-tagged) stock solution (1.08 mg/mL in 20 mM bicine, pH 8.5, 0.15 M NaCl, 10% glycerol, 0.3% CHAPS, 0.02% NaN3), diluted to 1.4-2.5× final concentration in assay buffer;
MR121 substrate solution: MR121 substrate stock solution (800 μM MR121 substrate in DMSO), diluted to 2-5× final concentration in assay buffer.
Test compounds (10 mM stock in DMSO, 8 μL) were obtained in 384 well sample plates (Corning Costar #3655) and diluted with 8 μL DMSO. Row-wise serial dilutions were made by transferring 8 μL cpd solution to the next row up to […]. The compound and control solutions were mixed five times and 2 μL were transferred to 384 well assay plates (Corning Costar #3702). Then, 15 μL of 41.7 nM ATX solution was added (30 nM final concentration), mixed five times and then incubated for 15 minutes at 30° C. 10 μL of MR121 substrate solution was added (1 μM final concentration), mixed 30 times and then incubated for 15 minutes at 30° C. Fluorescence was then measured every 2 minutes for 1 hour (Perkin Elmer plate: vision multimode reader); light intensity: 2.5%; exp. time: 1.4 sec, Filter: Fluo_630/690 nm) and IC50 values were calculated from these readouts.

**Q.** Which IC50 does the source give for `O=C(OCc1ccc(F)cc1)N1CCc2cc(C(=O)N3CCc4[nH]nnc4C3)nn2CC1` [Example 28, 4-fluorobenzyl 2-(4,5,6,7-tetrahydro-1H-[1,2,3]triazolo[4,5-c]pyridine-5-carbonyl)-7,8-dihydro-4H-pyrazolo[1,5-d][1,4]diazepine-6(5H)-carboxylate] here?
**A.** 76 nM

**Q.** `CC(C)c1cc(C#N)ccc1COC(=O)N1CCc2cc(C(=O)N3CCc4[nH]nnc4C3)nn2CC1` [Example 9, (4-Cyano-2-propan-2-ylphenyl)methyl 2-(1,4,6,7-tetrahydrotriazolo[4,5-c]pyridine-5-carbonyl)-4,5,7,8-tetrahydropyrazolo[1,5-d][1,4]diazepine-6-carboxylate] was tested. Which IC50 did it give?
**A.** 6 nM

**Q.** With `CCc1cc(C#N)ccc1OCC(=O)N1CCc2cc(C(=O)N3CCc4[nH]nnc4C3)nn2CC1` [Example 16, 3-Ethyl-4-(2-oxo-2-(2-(4,5,6,7-tetrahydro-1H-[1,2,3]triazolo[4,5-c]pyridine-5-carbonyl)-7,8-dihydro-4H-pyrazolo[1,5-d][1,4]diazepin-6(5H)-yl)ethoxy)benzonitrile] as the molecule, how does the IC50 read?
**A.** 12 nM

**Q.** For `O=C(c1cc(OCC2CCOCC2)nc(C2CC2)c1)N1CCc2cc(C(=O)N3CCc4[nH]nnc4C3)nn2CC1` [Example 24, (6-(2-cyclopropyl-6-((tetrahydro-2H-pyran-4-yl)methoxy)isonicotinoyl)-5,6,7,8-tetrahydro-4H-pyrazolo[1,5-d][1,4]diazepin-2-yl)(6,7-dihydro-1H-[1,2,3]triazolo[4,5-c]pyridin-5(4H)-yl)methanone], which IC50 is on record?
**A.** 9 nM

**Q.** For `O=C(/C=C/c1ccc(OC(F)F)c(F)c1)N1CCc2cc(C(=O)N3CCc4[nH]nnc4C3)nn2CC1` [Example 25, (E)-3-[4-(difluoromethoxy)-3-fluorophenyl]-1-[2-(1,4,6,7-tetrahydrotriazolo[4,5-c]pyridine-5-carbonyl)-4,5,7,8-tetrahydropyrazolo[1,5-d][1,4]diazepin-6-yl]prop-2-en-1-one], which IC50 is on record?
**A.** 7 nM

**Q.** For `O=C(CCc1ccc(OC(F)F)c(F)c1)N1CCc2cc(C(=O)N3CCc4[nH]nnc4C3)nn2CC1` [Example 26, 3-[4-(difluoromethoxy)-3-fluorophenyl]-1-[2-(1,4,6,7-tetrahydrotriazolo[4,5-c]pyridine-5-carbonyl)-4,5,7,8-tetrahydropyrazolo[1,5-d][1,4]diazepin-6-yl]propan-1-one], which IC50 is on record?
**A.** 16 nM

**Q.** How did the IC50 turn out when `COc1ccc(COC(=O)N2CCc3cc(C(=O)N4CCc5[nH]nnc5C4)nn3CC2)c(C)c1` [Example 33, 4-methoxy-2-methylbenzyl 2-(4,5,6,7-tetrahydro-1H-[1,2,3]triazolo[4,5-c]pyridine-5-carbonyl)-7,8-dihydro-4H-pyrazolo[1,5-d][1,4]diazepine-6(5H)-carboxylate] was run?
**A.** 94 nM

**Q.** `O=C(OCc1ccc(OC(F)(F)F)c(F)c1)N1CCc2cc(C(=O)N3CCc4[nH]nnc4C3)nn2CC1` [Example 3, [3-Fluoro-4-(trifluoromethoxy)phenyl]methyl 2-(1,4,6,7-tetrahydrotriazolo[4,5-c]pyridine-5-carbonyl)-4,5,7,8-tetrahydropyrazolo[1,5-d][1,4]diazepine-6-carboxylate] was tested. Which IC50 did it give?
**A.** 18 nM

**Q.** With `O=C(OCc1ccc(OC(F)(F)F)cc1F)N1CCc2nc(C(=O)N3CCc4[nH]nnc4C3)nn2CC1` [Example 35, [2-fluoro-4-(trifluoromethoxy)phenyl]methyl 2-(1,4,6,7-tetrahydrotriazolo[4,5-c]pyridine-5-carbonyl)-5,6,8,9-tetrahydro-[1,2,4]triazolo[1,5-d][1,4]diazepine-7-carboxylate] as the molecule, how does the IC50 read?
**A.** 13 nM

**Q.** `O=C(OCc1ccc(OC(F)(F)F)cc1F)N1CCc2cc(C(=O)N3CCc4[nH]nnc4C3)nn2CC1` [Example 4, 2-Fluoro-4-(trifluoromethoxy)benzyl 2-(4,5,6,7-tetrahydro-1H-[1,2,3]triazolo[4,5-c]pyridine-5-carbonyl)-7,8-dihydro-4H-pyrazolo[1,5-d][1,4]diazepine-6(5H)-carboxylate] was tested. Which IC50 did it give?
**A.** 7 nM
